# Experimental data taken from PubChem BioAssay (NCI).
# “And” between values parts separate entries of the source, which are not always exact repeats. Equal values may be shown once.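 Five compound concentrations were applied to cells in 96-well plates for 48 hours; endpoints were derived by simple linear interpolation of the resulting dose-response curve. GI50 marks 50% less growth. At the TGI there is no net growth.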
# What was measured:
# Assay in all cases: NCI tumour cell line growth inhibition, 48 h
# SK-MEL-2 melanoma = test system: SK-MEL-2 melanoma
# HS 578T breast = test system: HS 578T breast
# K-562 leukemia = test system: K-562 leukemia
# MDA-MB-231 breast = test system: MDA-MB-231 breast
# HL-60(TB) leukemia = test system: HL-60(TB) leukemia
# HCT-15 colon = test system: HCT-15 colon
# T-47D breast = test system: T-47D breast
# MOLT-4 leukemia = test system: MOLT-4 leukemia
# NCI-H522 lung = test system: NCI-H522 lung
# A498 renal = test system: A498 renal
SMILES,GI50 (SK-MEL-2 melanoma) [µM],TGI (SK-MEL-2 melanoma) [µM],GI50 (HS 578T breast) [µM],TGI (HS 578T breast) [µM],GI50 (K-562 leukemia),TGI (K-562 leukemia) [µM],GI50 (MDA-MB-231 breast),TGI (MDA-MB-231 breast) [µM],GI50 (HL-60(TB) leukemia) [µM],TGI (HL-60(TB) leukemia) [µM],GI50 (HCT-15 colon) [µM],TGI (HCT-15 colon) [µM],GI50 (T-47D breast),TGI (T-47D breast) [µM],GI50 (MOLT-4 leukemia),TGI (MOLT-4 leukemia) [µM],GI50 (NCI-H522 lung) [µM],TGI (NCI-H522 lung) [µM],GI50 (A498 renal) [µM],TGI (A498 renal) [µM]
CNC(=O)c1cncc(/C=C/c2ccccc2Cl)c1,> 25,> 25,24.5,> 25,> 25 µM,> 25,> 25 µM,> 25,> 25,> 25,> 25,> 25,> 23.6 µM,> 25,> 25 µM,> 25,> 25,> 25,> 25,> 25
COC(=O)[C@H](Cc1cn(C)cn1)NC(=O)[C@H](Cc1ccccc1)NC(=O)Nc1cc(C(F)(F)F)cc(C(F)(F)F)c1,17.7,32.3,15.1,45.1,7.69 µM and 5.97 µM,20.5,5.03 µM and 7.85 µM,21.2,16.5,32.7,16.9,42.4,3.54 µM and 8.29 µM,27,5.87 µM and 11.4 µM,28.9,11.7,24.7,15.8,30.1
COc1cc2nccc(Oc3ccc(NC(=O)c4cn(C(C)C)c(=O)n(-c5ccc(F)cc5)c4=O)cc3F)c2cc1OC,> 68.1,> 100,2.64,89.2,0.0442 µM,> 100,2.61 µM,39.5,> 100,> 100,> 100,> 100,3.23 µM,34.4,> 100 µM,> 100,> 22.5,> 100,1.64,6.27
CCN(Cc1c(F)cccc1Cl)c1ccc(CO)c(Cl)c1,0.785,19.9,18.2,47,0.2 µM,12.6,13.3 µM,27.1,13,37.3,10,24.7,< 0.0153 µM,0.0496,17.1 µM,39.8,13.8,28.5,< 0.0146,0.0457
CS(=O)(=O)N(c1cc(-c2ccc3ncnc(Nc4ccc(F)c(Cl)c4)c3c2)cnc1Cl)S(C)(=O)=O,1.16,4.01,0.218,2.61,2.45 µM,> 100,1.75 µM,9.65,0.49,5.35,0.945,13.9,0.13 µM,1.8,1.18 µM,7.74,1.57,11.1,0.342,1.56
Cc1ccc(C(=O)NC2CC2)cc1-c1ccc2[nH]ncc2c1,> 25,> 25,> 19.5,> 25,> 22 µM,> 25,> 25 µM,> 25,> 25,> 25,> 25,> 25,> 25 µM,> 25,> 25 µM,> 25,> 25,> 25,> 12.7,> 25
O=P(O)(O)OCC1OC(n2cnc3c(NCc4ccccc4)ncnc32)C(O)C1O (stereo not given),> 23.8,> 84.4,1.02,6.1,2.52 µM,> 100,0.35 µM,1.35,0.346,> 100,1.19,16,1.37 µM,10.3,0.673 µM,> 100,2.16,11.2,2.05,7.44
C[C@@H]1CC[C@@]2(NC1)O[C@H]1C[C@H]3[C@@H]4CC[C@H]5C[C@@H](O)CC[C@]5(C)[C@H]4CC[C@]3(C)[C@H]1[C@@H]2C,–,> 100,–,> 100,–,> 100,–,> 100,–,53.8,–,> 100,–,> 100,–,> 100,–,> 100,–,> 100
C=C(C)[C@@H]1CC[C@]2(C(=O)NS(=O)(=O)c3ccccc3)CC[C@]3(C)[C@H](CC[C@@H]4[C@@]5(C)CC[C@H](OC(=O)NS(=O)(=O)c6ccccc6)C(C)(C)[C@@H]5CC[C@]43C)[C@@H]12,2.01,4.97,1.49,10.1,1.41 µM,17.3,2.92 µM,12.1,2.24,5.08,1.62,4.65,1.74 µM,7.37,2.58 µM,24,2.48,9.19,1.65,4.69
CCOC(=O)CN1C(=O)c2cc([N+](=O)[O-])cc3cc([N+](=O)[O-])cc(c23)C1=O,–,> 62.3,–,> 100,–,> 100,–,> 100,–,8.99,–,> 100,–,> 100,–,> 64.9,–,46.3,–,> 100
